Experimental data from patent US11911361B2, “Stable cannabinoid formulations” (priority 2014, dated 2024).

How the values were obtained:
[1] = test system: psychomotor seizure induced by 6 Hz stimulation; assay: Minimal clonic seizure (6 Hz) psychomotor seizure test; conditions: intraperitoneal; for 6 HZ N/F (animals protected/tested): Anticonvulsant Screening, mice; for 6 Hz N/F (animals protected/tested) / 6 Hz N/F: CF1 mice; for ED50: Mus musculus, ip; for 6 Hz N/F: Time to Peak Effect (Table 54)
[2] = test system: maximal electroshock-induced seizures; assay: Maximal electroshock test (MES), mice; conditions: for MES N/F (animals protected/tested): mice
[3] = test system: U87 cells; assay: Orthotopic mouse model of glioblastoma multiforme, U87 cells
[4] = test system: vincristine-induced peripheral neuropathy; assay: Vincristine induced neuropathic pain study; type: in vivo; conditions: CBD 15 minutes prior to each vincristine 0.1 mg/kg injection
Protocol: A study was designed to test the efficacy of CBD in preventing oxaliplatin- or vincristine-induced peripheral neuropathy. Two doses of CBD and vehicle were tested against each of these first line chemotherapeutic agents. Oxaliplatin was administered once at a dose of 6 mg/kg. CBD was administered 15 minutes prior to the single oxaliplatin injection. Vincristine was administered once daily for 7 days at a dose of 0.1 mg/kg. CBD was administered 15 minutes prior to each vincristine injection. For each treatment group the final sample size was 8 animals.

C=C(C)[C@@H]1CCC(C)=C[C@H]1c1c(O)cc(CCCCC)cc1O [cannabidiol, (−)-trans-2-p-mentha-1,8-dien-3-yl-5-pentylresorcinol]
6 HZ N/F (animals protected/tested) ([1]; 100 mg/kg, 0.5 h, ethanol:polyethoxylated castor oil:PBS): 2/4
6 HZ N/F (animals protected/tested) ([1]; 100 mg/kg, 0.5 h, methylcellulose): 1/4
6 HZ N/F (animals protected/tested) ([1]; 100 mg/kg, 1.0 h, ethanol:polyethoxylated castor oil:PBS): 0/4
6 HZ N/F (animals protected/tested) ([1]; 100 mg/kg, 1.0 h, methylcellulose): 0/4
6 HZ N/F (animals protected/tested) ([1]; 100 mg/kg, 2.0 h, ethanol:polyethoxylated castor oil:PBS): 0/4
6 HZ N/F (animals protected/tested) ([1]; 100 mg/kg, 2.0 h, methylcellulose): 0/4
6 Hz N/F (animals protected/tested) ([1]; ED50 Biological Response (Table 53), 30 mg/kg, 0.5 h, methylcellulose): 0/8
6 Hz N/F (animals protected/tested) ([1]; ED50 Biological Response (Table 53), 65 mg/kg, 0.5 h, methylcellulose): 5/8
6 Hz N/F (animals protected/tested) ([1]; ED50 Biological Response (Table 53), 130 mg/kg, 0.5 h, methylcellulose): 5/8
6 Hz N/F (animals protected/tested) ([1]; ED50 Biological Response (Table 53), 160 mg/kg, 0.5 h, methylcellulose): 8/16
6 Hz N/F (animals protected/tested) ([1]; ED50 Biological Response (Table 53), 190 mg/kg, 0.5 h, methylcellulose): 7/8
6 Hz N/F (animals protected/tested) ([1]; ED50 Biological Response (Table 55), 50 mg/kg, 0.5 h, ethanol:polyethoxylated castor oil:PBS): 1/8
6 Hz N/F (animals protected/tested) ([1]; ED50 Biological Response (Table 55), 100 mg/kg, 0.5 h, ethanol:polyethoxylated castor oil:PBS): 1/8
6 Hz N/F (animals protected/tested) ([1]; ED50 Biological Response (Table 55), 130 mg/kg, 0.5 h, ethanol:polyethoxylated castor oil:PBS): 4/8
6 Hz N/F (animals protected/tested) ([1]; ED50 Biological Response (Table 55), 170 mg/kg, 0.5 h, ethanol:polyethoxylated castor oil:PBS): 6/8
6 Hz N/F (animals protected/tested) ([1]; ED50 Biological Response (Table 55), 200 mg/kg, 0.5 h, ethanol:polyethoxylated castor oil:PBS): 8/8
ED50 ([1]; 1:1:18 ethanol:polyethoxylated castor oil:PBS solvent): 122 mg/kg
ED50 ([1]; methylcellulose solvent): 104 mg/kg
6 Hz N/F ([1]; 300 mg/kg, 0.25 h, methylcellulose): 1/8
6 Hz N/F ([1]; 300 mg/kg, 0.5 h, methylcellulose): 0/8
6 Hz N/F ([1]; 300 mg/kg, 1 h, methylcellulose): 0/8
6 Hz N/F ([1]; 300 mg/kg, 2 h, methylcellulose): 0/8
6 Hz N/F ([1]; 300 mg/kg, 4 h, methylcellulose): 0/8
6 Hz N/F ([1]; 300 mg/kg, 6 h, methylcellulose): 0/8
6 Hz N/F ([1]; 300 mg/kg, 24 h, methylcellulose): 0/8
6 Hz N/F ([1]; 500 mg/kg, 0.25 h, methylcellulose): 1/8
6 Hz N/F ([1]; 500 mg/kg, 0.5 h, methylcellulose): 0/8
6 Hz N/F ([1]; 500 mg/kg, 1 h, methylcellulose): 0/8
6 Hz N/F ([1]; 500 mg/kg, 2 h, methylcellulose): 0/8
6 Hz N/F ([1]; 500 mg/kg, 4 h, methylcellulose): 0/8
6 Hz N/F ([1]; 500 mg/kg, 6 h, methylcellulose): 0/8
6 Hz N/F ([1]; 500 mg/kg, 24 h, methylcellulose): 2/8
MES N/F (animals protected/tested) ([2]; Anticonvulsant Screening, intraperitoneal, 10 mg/kg, 0.5 h, ethanol:polyethoxylated castor oil:PBS): 0/4
MES N/F (animals protected/tested) ([2]; Anticonvulsant Screening, intraperitoneal, 10 mg/kg, 0.5 h, methylcellulose): 0/4
MES N/F (animals protected/tested) ([2]; Anticonvulsant Screening, intraperitoneal, 10 mg/kg, 1.0 h, ethanol:polyethoxylated castor oil:PBS): 0/4
MES N/F (animals protected/tested) ([2]; Anticonvulsant Screening, intraperitoneal, 10 mg/kg, 1.0 h, methylcellulose): 0/4
MES N/F (animals protected/tested) ([2]; Anticonvulsant Screening, intraperitoneal, 10 mg/kg, 2.0 h, ethanol:polyethoxylated castor oil:PBS): 0/4
MES N/F (animals protected/tested) ([2]; Anticonvulsant Screening, intraperitoneal, 10 mg/kg, 2.0 h, methylcellulose): 0/4
MES N/F (animals protected/tested) ([2]; Anticonvulsant Screening, intraperitoneal, 30 mg/kg, 0.5 h, ethanol:polyethoxylated castor oil:PBS): 0/4
MES N/F (animals protected/tested) ([2]; Anticonvulsant Screening, intraperitoneal, 30 mg/kg, 0.5 h, methylcellulose): 0/4
MES N/F (animals protected/tested) ([2]; Anticonvulsant Screening, intraperitoneal, 30 mg/kg, 1.0 h, ethanol:polyethoxylated castor oil:PBS): 1/4
MES N/F (animals protected/tested) ([2]; Anticonvulsant Screening, intraperitoneal, 30 mg/kg, 1.0 h, methylcellulose): 0/4
MES N/F (animals protected/tested) ([2]; Anticonvulsant Screening, intraperitoneal, 30 mg/kg, 2.0 h, ethanol:polyethoxylated castor oil:PBS): 0/4
MES N/F (animals protected/tested) ([2]; Anticonvulsant Screening, intraperitoneal, 30 mg/kg, 2.0 h, methylcellulose): 0/4
MES N/F (animals protected/tested) ([2]; Anticonvulsant Screening, intraperitoneal, 100 mg/kg, 0.5 h, ethanol:polyethoxylated castor oil:PBS): 0/4
MES N/F (animals protected/tested) ([2]; Anticonvulsant Screening, intraperitoneal, 100 mg/kg, 0.5 h, methylcellulose): 0/4
MES N/F (animals protected/tested) ([2]; Anticonvulsant Screening, intraperitoneal, 100 mg/kg, 1.0 h, ethanol:polyethoxylated castor oil:PBS): 2/4
MES N/F (animals protected/tested) ([2]; Anticonvulsant Screening, intraperitoneal, 100 mg/kg, 1.0 h, methylcellulose): 1/4
MES N/F (animals protected/tested) ([2]; Anticonvulsant Screening, intraperitoneal, 100 mg/kg, 2.0 h, ethanol:polyethoxylated castor oil:PBS): 1/4
MES N/F (animals protected/tested) ([2]; Anticonvulsant Screening, intraperitoneal, 100 mg/kg, 2.0 h, methylcellulose): 2/4
MES N/F (animals protected/tested) ([2]; ED50 Biological Response (Table 57), 200 mg/kg, 2 h, methylcellulose): 5/8
MES N/F (animals protected/tested) ([2]; ED50 Biological Response (Table 57), 250 mg/kg, 2 h, methylcellulose): 4/8
MES N/F (animals protected/tested) ([2]; ED50 Biological Response (Table 57), 350 mg/kg, 2 h, methylcellulose): 3/8
MES N/F (animals protected/tested) ([2]; ED50 Biological Response (Table 57), 400 mg/kg, 2 h, methylcellulose): 3/8
MES N/F (animals protected/tested) ([2]; ED50 Biological Response (Table 57), 450 mg/kg, 2 h, methylcellulose): 6/8
MES N/F (animals protected/tested) ([2]; ED50 Biological Response (Table 57), 500 mg/kg, 2 h, methylcellulose): 8/8
MES N/F (animals protected/tested) ([2]; ED50 Biological Response (Table 59), 75 mg/kg, 2 h, ethanol:polyethoxylated castor oil:PBS): 1/8
MES N/F (animals protected/tested) ([2]; ED50 Biological Response (Table 59), 95 mg/kg, 2 h, ethanol:polyethoxylated castor oil:PBS): 5/8
MES N/F (animals protected/tested) ([2]; ED50 Biological Response (Table 59), 120 mg/kg, 2 h, ethanol:polyethoxylated castor oil:PBS): 7/8
MES N/F (animals protected/tested) ([2]; ED50 Biological Response (Table 59), 150 mg/kg, 2 h, ethanol:polyethoxylated castor oil:PBS): 8/8
ED50 ([2]; Mus musculus): 92.2 mg/kg
MES N/F (animals protected/tested) ([2]; Tables 57/58, 300 mg/kg, 2 h, methylcellulose): 4/8
MES N/F (animals protected/tested) ([2]; Time to Peak Effect (Table 58), 300 mg/kg, 0.25 h, methylcellulose): 0/4
MES N/F (animals protected/tested) ([2]; Time to Peak Effect (Table 58), 300 mg/kg, 0.5 h, methylcellulose): 1/4
MES N/F (animals protected/tested) ([2]; Time to Peak Effect (Table 58), 300 mg/kg, 1 h, methylcellulose): 1/4
MES N/F (animals protected/tested) ([2]; Time to Peak Effect (Table 58), 300 mg/kg, 4 h, methylcellulose): 2/4
ED50 ([2]; methylcellulose solvent): could not be calculated
animals protected / tested ([2]; methylcellulose solvent, 0.5 hr): ¼
animals protected / tested ([2]; methylcellulose solvent, 1 hr): ¼
animals protected / tested ([2]; methylcellulose solvent, 2 hr): 4/8
animals protected / tested ([2]; methylcellulose solvent, 4 hr): 2/4
glioblastoma multiforme progression (in words) ([3]; 15 mg/kg alone, intraperitoneal): did not inhibit glioblastoma multiforme progression
effect on antitumor activity of temozolomide (in words) ([3]; 15 mg/kg with temozolomide 2 mg/kg, intraperitoneal): enhanced the antitumor activity of suboptimal doses of temozolomide leading to a significant increase in survival
full regression of tumors ([3]; mouse, in vivo): 20%
effect on vincristine-induced mechanical sensitivity (in words) [4]: no main effect of treatment
